Assay results as given in patent US20170008888A1 (KYORIN PHARMACEUTICAL CO., LTD., priority 2014, published 2017).
Where two headings read alike, the source gives them in different places.

Experiments:
Assay type in all cases: binding
JAK1 = target: T1, JAK1 (Homo sapiens, UniProt P23458); test: Probe-based (AX9989) kinase profiling in Jurkat lysate: JAK1; conditions: for inhibition at 0.1 µM: screening concentration 0.1 μM
T1 construct: screened for activity against several kinases in Jurkat cells; endogenous in cells; host or cells: Jurkat cell lysate
How it was run: (§1)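 Jurkat lysate, HEPES pH 7.5 buffer + 20 mM MnCl2; cpd 15 min RT; AX9989 ATP probe 5 μM final, RT. Trypsin digest, streptavidin capture, LC/MS; % inhibition vs vehicle from labeled-peptide signal.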

AMPKa1 or AMPKa2 = test: Probe-based (AX9989) kinase profiling in Jurkat lysate: AMPKa1 or AMPKa2
How it was run: as §1

AurB or AurC = test: Probe-based (AX9989) kinase profiling in Jurkat lysate: AurB or AurC
How it was run: as §1

[1] = target: T2, BRD4 bromodomain domain I [BRD4(1)] (Homo sapiens, UniProt O60885); test: BRD4 bromodomain domain 1 inhibition assay (TR-FRET); conditions: screening concentration 10 μM
T2 construct: BRD4 bromodomain domain I [BRD4(1)]; purchased Cayman Chemicals
How it was run: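 0.5% DMSO, in triplicate, using Cayman BRD4(1) TR-FRET protocol with slight modification. 670/620 nm ratio normalized to 10 μM JQ1, with DMSO control set as 0% inhibition.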

AurA = target: T3, AurA (Homo sapiens, UniProt O14965); test: Probe-based (AX9989) kinase profiling in Jurkat lysate: AurA; conditions: for inhibition at 0.1 µM: screening concentration 0.1 μM
T3 construct: screened for activity against several kinases in Jurkat cells; endogenous in cells; host or cells: Jurkat cell lysate
T3 sequence (O14965 1-403): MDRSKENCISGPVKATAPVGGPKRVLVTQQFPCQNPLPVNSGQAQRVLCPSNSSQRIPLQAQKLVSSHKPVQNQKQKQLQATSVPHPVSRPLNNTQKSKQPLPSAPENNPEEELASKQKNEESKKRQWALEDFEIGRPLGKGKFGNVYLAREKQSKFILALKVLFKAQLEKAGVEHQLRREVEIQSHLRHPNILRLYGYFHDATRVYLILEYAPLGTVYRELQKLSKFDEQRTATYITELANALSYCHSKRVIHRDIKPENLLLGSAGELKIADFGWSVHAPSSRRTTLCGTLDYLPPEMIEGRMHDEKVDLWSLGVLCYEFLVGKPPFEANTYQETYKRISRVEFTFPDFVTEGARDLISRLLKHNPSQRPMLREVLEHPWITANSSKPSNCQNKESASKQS
How it was run: as §1

[2] = screening concentration 1.0 μM, read-out: Kinase inhibition % at indicated screening concentration: JAK1
[3] = screening concentration 1.0 μM, read-out: Kinase inhibition % at indicated screening concentration: AurA
[4] = read-out: Kinase inhibition % at indicated screening concentration: JAK1
[5] = read-out: Kinase inhibition % at indicated screening concentration: AurA

T1 sequence (P23458 whole entry): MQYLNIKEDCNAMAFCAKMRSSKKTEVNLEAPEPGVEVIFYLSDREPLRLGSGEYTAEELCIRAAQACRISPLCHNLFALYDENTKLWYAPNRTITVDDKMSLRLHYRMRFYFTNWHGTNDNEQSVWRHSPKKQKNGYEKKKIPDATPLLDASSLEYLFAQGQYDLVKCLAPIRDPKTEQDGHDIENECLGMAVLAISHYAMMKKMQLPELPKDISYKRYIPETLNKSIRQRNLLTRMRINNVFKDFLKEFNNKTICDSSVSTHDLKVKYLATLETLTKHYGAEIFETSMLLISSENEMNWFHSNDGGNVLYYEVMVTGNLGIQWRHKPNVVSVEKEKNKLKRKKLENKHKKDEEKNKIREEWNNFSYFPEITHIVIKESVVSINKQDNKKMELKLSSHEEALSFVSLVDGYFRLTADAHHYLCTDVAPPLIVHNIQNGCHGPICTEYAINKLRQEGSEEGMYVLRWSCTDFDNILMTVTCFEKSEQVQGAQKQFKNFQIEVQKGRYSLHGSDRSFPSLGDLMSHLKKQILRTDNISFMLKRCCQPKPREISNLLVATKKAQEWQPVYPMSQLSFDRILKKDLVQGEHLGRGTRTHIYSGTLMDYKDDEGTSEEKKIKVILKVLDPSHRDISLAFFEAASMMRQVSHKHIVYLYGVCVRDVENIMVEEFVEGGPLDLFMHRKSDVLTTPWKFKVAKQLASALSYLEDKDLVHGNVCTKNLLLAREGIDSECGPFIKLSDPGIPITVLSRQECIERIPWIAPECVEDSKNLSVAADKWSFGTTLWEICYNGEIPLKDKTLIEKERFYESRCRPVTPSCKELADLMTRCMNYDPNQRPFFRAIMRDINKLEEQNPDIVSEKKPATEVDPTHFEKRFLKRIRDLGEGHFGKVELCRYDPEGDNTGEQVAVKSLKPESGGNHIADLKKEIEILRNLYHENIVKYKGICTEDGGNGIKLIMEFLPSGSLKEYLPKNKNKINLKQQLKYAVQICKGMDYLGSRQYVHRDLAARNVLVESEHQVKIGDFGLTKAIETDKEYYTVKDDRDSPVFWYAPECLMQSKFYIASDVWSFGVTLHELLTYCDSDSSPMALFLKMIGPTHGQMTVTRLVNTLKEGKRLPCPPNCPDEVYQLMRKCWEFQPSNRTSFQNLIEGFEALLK

SMILES	inhibition at 1 µM (JAK1; [2])	Kinase inhibition % at indicated screening concentration: AMPKa1 or AMPKa2 (AMPKa1 or AMPKa2; screening concentration 1.0 μM)	Kinase inhibition % at indicated screening concentration: AurB or AurC (AurB or AurC; screening concentration 1.0 μM)	inhibition at 10 µM [1]	inhibition at 1 µM (AurA; [3])	inhibition at 0.1 µM (JAK1; [4])	Kinase inhibition % at indicated screening concentration: AMPKa1 or AMPKa2 (AMPKa1 or AMPKa2; screening concentration 0.1 μM)	Kinase inhibition % at indicated screening concentration: AurB or AurC (AurB or AurC; screening concentration 0.1 μM)	inhibition at 0.1 µM (AurA; [5])	inhibition at 1 µM (JAK1; screening concentration 1 μM, read-out: JAK1 Inhibition % at indicated screening concentration)	AMPKa1 or AMPKa2 Inhibition % at indicated screening concentration (AMPKa1 or AMPKa2; screening concentration 1 μM)	AurB or AurC Inhibition % at indicated screening concentration (AurB or AurC; screening concentration 1 μM)	inhibition at 1 µM (AurA; screening concentration 1 μM, read-out: AurA Inhibition % at indicated screening concentration)
CCOc1cc(C(=O)N2CCC(N3CCN(C)CC3)CC2)ccc1Nc1cc2c(cn1)N(C)C(=O)c1occc1N2C [Compound 65]				> 85%		≤ 35%	E (E is ≦35%)	E (E is ≦35%)	≤ 35%				
CCOc1cc(C(=O)N2CCC(N3CCCC3)CC2)ccc1Nc1cc2c(cn1)N(C)C(=O)c1occc1N2C [Compound 91, 6-((2-Ethoxy-4-(4-(pyrrolidin-1-yl)piperidine-1-carbonyl)phenyl)amino)-4,9-dimethyl-4H-furo[3,2-e]pyrido[3,4-b][1,4]diazepin-10(9H)-one]				> 85%		≤ 35%	E (E is ≦35%)	E (E is ≦35%)	≤ 35%				
Cc1cc(CN2CC[C@@H](N3CCCC3)C2)ccc1Nc1cc2c(cn1)N(C)C(=O)c1ccccc1N2C [Compound 49]				> 85%		≤ 35%	E (E is ≦35%)	E (E is ≦35%)	≤ 35%				
CCOc1cc(C(=O)N2CC[C@@H](N(CC)CC)C2)ccc1Nc1cc2c(cn1)N(C)C(=O)c1occc1N2C [Compound 67]				> 85%		≤ 35%	E (E is ≦35%)	E (E is ≦35%)	≤ 35%				
CCOc1cc(C(=O)N2CCCC(O)C2)ccc1Nc1cc2c(cn1)N(C)C(=O)c1ccccc1N2C (stereo not shown) [Compound 93]	≤ 35%	E (E is ≦35%)	E (E is ≦35%)	> 85%	≤ 35%								

Second part, the compound after the results:

inhibition at 1 µM (JAK1; [2])	Kinase inhibition % at indicated screening concentration: AMPKa1 or AMPKa2 (AMPKa1 or AMPKa2; screening concentration 1.0 μM)	Kinase inhibition % at indicated screening concentration: AurB or AurC (AurB or AurC; screening concentration 1.0 μM)	inhibition at 10 µM [1]	inhibition at 1 µM (AurA; [3])	inhibition at 0.1 µM (JAK1; [4])	Kinase inhibition % at indicated screening concentration: AMPKa1 or AMPKa2 (AMPKa1 or AMPKa2; screening concentration 0.1 μM)	Kinase inhibition % at indicated screening concentration: AurB or AurC (AurB or AurC; screening concentration 0.1 μM)	inhibition at 0.1 µM (AurA; [5])	inhibition at 1 µM (JAK1; screening concentration 1 μM, read-out: JAK1 Inhibition % at indicated screening concentration)	AMPKa1 or AMPKa2 Inhibition % at indicated screening concentration (AMPKa1 or AMPKa2; screening concentration 1 μM)	AurB or AurC Inhibition % at indicated screening concentration (AurB or AurC; screening concentration 1 μM)	inhibition at 1 µM (AurA; screening concentration 1 μM, read-out: AurA Inhibition % at indicated screening concentration)	SMILES
≤ 35%	E (E is ≦35%)	E (E is ≦35%)	< 70%	≤ 35%									CCOc1cc(C(=O)NCCOC)ccc1Nc1cc2c(cn1)N(C)C(=O)c1ccccc1N2C [Compound 83]
≤ 35%	E (E is ≦35%)	E (E is ≦35%)	< 70%	≤ 35%									CCOc1cc(C(=O)NCCO)ccc1Nc1cc2c(cn1)N(C)C(=O)c1ccccc1N2C [Compound 66]
≤ 35%	E (E is ≦35%)	E (E is ≦35%)	> 85%	≤ 35%									CCOc1cc(C(=O)N2CC[C@H](N(C)C)C2)ccc1Nc1cc2c(cn1)N(C)C(=O)c1ccccc1N2C [Compound 75]
≤ 35%	E (E is ≦35%)	E (E is ≦35%)	70 to 85%	≤ 35%									CCOc1cc(C(=O)N[C@H]2CCCOC2)ccc1Nc1cc2c(cn1)N(C)C(=O)c1ccccc1N2C [Compound 100]
			70 to 85%						≤ 35%	E (E is ≦35%)	E (E is ≦35%)	≤ 35%	CCOc1cc(C(=O)N(C)[C@H]2CC[C@H](O)CC2)ccc1Nc1cc2c(cn1)N(C)C(=O)c1ccccc1N2C [Compound T64]
			70 to 85%		≤ 35%	E (E is ≦35%)	E (E is ≦35%)	≤ 35%					CCOc1cc(C(=O)NCCN(C(C)C)C(C)C)ccc1Nc1cc2c(cn1)N(C)C(=O)c1ccccc1N2C [Compound 55]
